Laboratory results as given in patent publication US6372940B1, “Process for the preparation of non-hygroscopic salts of L(−)-carnitine” (Sigma-Tau Industrie Farmaceutiche Riunite S.p.A, priority 1999, dated 2002).

How the values were obtained:
[1] = Tapped density of the granulate (U.S. Pharmacopoeia method); type: physicochemical; conditions: for tapped density of the granulate: product of the humid melting process of the invention, USP 23 NF 18 method
From the text: It is in fact known that an inadequately low density (for example, for L(−)-carnitine acid fumarate, a tapped density value below 0.7 g/mL) provides a too light and flaky product which involves serious processability problems. The bulk density is not a reliable parameter for granulated or powdery products, in that even imperceptible perturbations of the test sample can give rise to remarkably different bulk density values. For the characterization of the density of said materials the tapped density is preferably used, which is the limit density obtained after tapping down the material by subjecting a graduated cylinder containing the granulate or powder to strokes, namely by hoisting the cylinder to a fixed height then dropping it for a fixed number of times. The tapped density is usually determined according to the method described in U.S. Pharmacopoeia, National Formulary, Supplement, USP 23, NF 18, Nov. 15, 1997, pages 3976-3977. Said method is herein incorporated by reference. The material is passed through a 1 mm (n. 18 mesh) sieve to crush any agglomerates formed during storage. About 100 g (M) of the test material are placed without tapping down in a 250 mL graduated cylinder. Using a suitable device, the cylinder is hoisted then dropped under the action of its own weight, from a height of 14+2 mm, with a 300 times/minute fall frequency. The volume of the material after a first 500 fall cycle is then measured. […] The tapped density, in g/mL, is expressed by the formula: M/Vf.

[2] = Hygroscopicity and storage behaviour of the granulate; type: physicochemical; conditions: ground to the desired particle size

C[N+](C)(C)C[C@H](O)CC(=O)O.C[N+](C)(C)C[C@H](O)CC(=O)O.O=C([O-])C(O)C(O)C(=O)[O-] [Example 3, L(−)-carnitine Tartrate (2:1)]
tapped density of the granulate [1]: 0.83 g/mL

L(−)-carnitine Acid Fumarate [Example 1]
tapped density of the granulate [1]: 0.84 g/mL | hygroscopicity of the granulate [2]: non-hygroscopic | stability of the granulate in time (packing and/or aggregation) [2]: remained unchanged in time without undergoing packing and/or aggregation

L(−)-carnitine Acid Fumarate [Example 2]
Physico-chemical characteristics of the final compound ([1]; prepared in the presence of a crystallization initiator): the same as those obtained in the preparation of Example 1
